Data reported in US20230312556A1, “ARYLAMIDE COMPOUND, PHARMACEUTICAL COMPOSITION COMPRISING SAME, AND PREPARATION METHOD THEREFOR AND USE THEREOF” (SICHUAN KELUN-BIOTECH BIOPHARMACEUTICAL CO., LTD., priority 2020, published 2023).

Assays:
[1] = system: human hepatocellular carcinoma cell HepG2 (NRAS-Q61K mutation); assay: Cancer cell proliferation inhibition assay, HepG2; format: cell-based; conditions: 72 h incubation, Cell Titer Glo
Description: (§1) The inhibitory effects of the compounds of the present invention on cancer cell proliferation were further evaluated by testing the effects of the compounds of the present invention on the growth of cancer cells.
(§2) In this example, human melanoma cell A375 (BRAF-V600E mutation, purchased from the Cell Bank of the Chinese Academy of Sciences) and human hepatocellular carcinoma cell HepG2 (NRAS-Q61K mutation, purchased from ATCC, USA) were employed.
(§3) In this example, the test compounds at various concentrations (100000 nM, 30000 nM, 10000 nM, 3000 nM, 1000 nM, 300 nM, 100 nM, 30 nM, 10 nM) were added to the above cells, and the incubation was performed for 72 h. The inhibitory activity of the compounds was tested by measuring ATP in living cells using the Cell Titer Glo Kit (Promega).
(§4) The IC50 values of the compounds of the present invention for each tested cell were determined, and the test results are as follows: […]

[2] = system: human melanoma cell A375 (BRAF-V600E mutation); assay: Cancer cell proliferation inhibition assay, A375; format: cell-based; conditions: A-375, 72 h incubation, Cell Titer Glo
Description: as §1, §2, §3, §4

`Cc1ccc2c(Nc3cccc(Cl)c3)nccc2c1NC(=O)c1cnc2c(N)ncnn12` [Compound 12, 4-amino-N-(1-((3-chlorophenyl)amino)-6-methylisoquinolin-5-yl)imidazo[2,1-f][1,2,4]triazine-7-carboxamide] was tested, and the IC50 [1] was 13.9 ± 1.7 nM.
In the case of `Cc1ccc2c(C(O)c3ccccc3Cl)nccc2c1NC(=O)c1cccc2c(N)ncnc12` (centres unmarked) [Compound 24, 4-amino-N-(1-((2-chlorophenyl)(hydroxy)methyl)-6-methylisoquinolin-5-yl)quinazoline-8-carboxamide], the IC50 [2] is reported as 70.7 ± 6.15 nM.
`Cc1ccc2c(Nc3cccc(Cl)c3F)nccc2c1NC(=O)c1cnc2c(N)ncnn12` [Compound 30, 4-amino-N-(1-((3-chloro-2-fluorophenyl)amino)-6-methylisoquinolin-5-yl)imidazo[2,1-f][1,2,4]triazine-7-carboxamide] was tested, and the IC50 [1] was 13.3 ± 0.9 nM and the IC50 [2] was 89.3 ± 11.3 nM.
Compound `Cc1cc(C(=O)Nc2c(C)ccc3c(Nc4cccc(Cl)c4F)nccc23)c2ncnc(N)c2c1` [Compound 45, 4-amino-N-(1-((3-chloro-2-fluorophenyl)amino)-6-methylisoquinolin-5-yl)-6-methylquinazoline-8-carboxamide] has an IC50 [1] of 64.3 ± 5.08 nM and an IC50 [2] of 74.2 ± 3.5 nM.
For `Cc1ccc2c(Nc3cccc(Cl)c3F)nccc2c1NC(=O)c1cc(N2CCOCC2)cc2c(N)ncnc12` [Compound 53, 4-amino-N-(1-((3-chloro-2-fluorophenyl)amino)-6-methylisoquinolin-5-yl)-6-morpholinoquinazoline-8-carboxamide], the IC50 [1] was 113 ± 3.35 nM and the IC50 [2] was 77.7 ± 2.3 nM.
Compound `Cc1ccc2c(Nc3cccc(Cl)c3F)nccc2c1NC(=O)c1cc(N2CCN(C)CC2)cc2c(N)ncnc12` [Compound 54, 4-amino-N-(1-((3-chloro-2-fluorophenyl)amino)-6-methylisoquinolin-5-yl)-6-(4-methylpiperazin-1-yl)quinazoline-8-carboxamide] has an IC50 [1] of 95.6 ± 8.18 nM and an IC50 [2] of 108 ± 19.9 nM.
`Cc1ccc2c(Nc3ccc(Cl)cc3F)nccc2c1NC(=O)c1cnc2c(N)ncnn12` [Compound 55, 4-amino-N-(1-((4-chloro-2-fluorophenyl)amino)-6-methylisoquinolin-5-yl)imidazo[2,1-f][1,2,4]triazine-7-carboxamide] was tested, and the IC50 [1] was 30.4 ± 4.3 nM.
Work on `Cc1ccc2c(Nc3cc(F)ccc3F)nccc2c1NC(=O)c1cccc2c(N)ncnc12` [Compound 72, 4-amino-N-(1-((2,5-difluorophenyl)amino)-6-methylisoquinolin-5-yl)quinazoline-8-carboxamide] yielded an IC50 [1] of 64.3 ± 12.3 nM.
In the case of `Cc1ccc2c(Nc3cccc(Cl)c3F)nccc2c1NC(=O)c1ccnc2c(N)ncnc12` [Compound 81, 4-amino-N-(1-((3-chloro-2-fluorophenyl)amino)-6-methylisoquinolin-5-yl)pyrido[3,2-d]pyrimidine-8-carboxamide], the IC50 [1] is reported as 222 ± 29.8 nM.
`Cc1ccc2c(Nc3c(F)c(F)cc(F)c3F)nccc2c1NC(=O)c1cccc2c(N)ncnc12` [Compound 95, 4-amino-N-(6-methyl-1-((2,3,5,6-tetrafluorophenyl)amino)isoquinolin-5-yl)quinazoline-8-carboxamide] was tested, and the IC50 [1] was 69 ± 18.9 nM.
For `Cc1ccc2c(Nc3cc(F)c(F)c(F)c3F)nccc2c1NC(=O)c1cccc2c(N)ncnc12` [Compound 96, 4-amino-N-(6-methyl-1-((2,3,4,5-tetrafluorophenyl)amino)isoquinolin-5-yl)quinazoline-8-carboxamide], the IC50 [1] was 119 ± 29.3 nM.
Compound `Cc1ccc2c(Nc3cccc(OCCN4CCOCC4)c3F)nccc2c1NC(=O)c1cccc2c(N)ncnc12` [Compound 98, 4-amino-N-(1-((2-fluoro-3-(2-morpholinoethoxy)phenyl)amino)-6-methylisoquinolin-5-yl)quinazoline-8-carboxamide] has an IC50 [1] of 63.7 ± 4.4 nM.
With `Cc1ccc2c(Nc3cccc(Cl)c3F)nccc2c1NC(=O)c1cn(C)c2c(N)ncnc12` [Compound 101, 4-amino-N-(1-((3-chloro-2-fluorophenyl)amino)-6-methylisoquinolin-5-yl)-5-methyl-5H-pyrrolo[3,2-d]pyrimidine-7-carboxamide] the IC50 [1] was 81.1 ± 4.5 nM.
